The values below come from article PMC11792831, “Design and synthesis of doublecortin-like kinase 1 inhibitors and their bioactivity evaluation” (Journal of Enzyme Inhibition and Medicinal Chemistry, 2023).

Molecules are shown by their SMILES. Where two headings read alike, the source gives them in different places. Some results are limits rather than exact numbers.

One series concerns HCT116. As to the kind of experiment: In vitro cytotoxicity / anti-proliferation assay (CCK8). The class given is cell-based. To be noted: Homo sapiens, HCT-116, colorectal cancer cell line HCT116, 72 h. The protocol:
To determine whether DCLK1 was required for tumour cell proliferation, the cytotoxicity of compounds was evaluated in colorectal cancer cell line HCT116. HCT116 was treated with compounds for 72 h, and the cell viability was determined using CCK8 assay (Figure 4). The antiproliferative effects of most compounds on HCT116 were correlated with their DCLK1 inhibitory activities, except for compounds D1 and D2. The poor cytotoxicity of compounds D1 and D2 may be attributed to their poor cell membrane permeability due to the negatively charged carboxylates. […] Overall, targeting DCLK1 inhibited the proliferation of HCT116, indicating the importance of DCLK1 in tumour growth.
A 96-well plate (3599, Corning, USA) was inoculated with 100 μL of complete medium containing 10 000 cells, and the experimental, control, and blank groups were established. Three parallel wells were used per concentration. After 10 h, media from the experimental and control groups were replaced with a complete medium containing the indicated concentration of the compound. Cells were incubated for 72 h before 10 μL of CCK8 reagent (CA1210, Solarbio, China) was added to each well and incubated for 1 h. The absorbance at 450 nm was measured with a microplate reader (Tecan, Switzerland). The IC50 was determined using GraphPad Prism 8 and nonlinear regression curve fitting.

A further series addresses T1, LRRK2 (Homo sapiens, UniProt Q5S007).
T1 construct: purchased Eurofins (Belgium), contract assay service
As to the kind of experiment: In vitro LRRK2 kinase activity assay (Eurofins). The class given is biochemical. Conditions: for activity at 1 µM: remaining kinase activity at 1 uM compound, 100% = no inhibition, 0% = complete inhibition. The protocol: All compounds were tested for their kinase inhibitory activity at the concentration of 1 μM. […] Compounds with high activity or good selectivity were selected for further IC50 determination (Table 2).
(§1) Eurofins (Belgium) conducted in vitro DCLK1 and LRRK2 kinase activity assays. Compounds were sent as dry powders to Eurofins.

The target in another series is T2, DCLK1 (Homo sapiens, UniProt O15075).
T2 construct: purchased Eurofins (Belgium), contract assay service
T2 sequence (O15075 1-740): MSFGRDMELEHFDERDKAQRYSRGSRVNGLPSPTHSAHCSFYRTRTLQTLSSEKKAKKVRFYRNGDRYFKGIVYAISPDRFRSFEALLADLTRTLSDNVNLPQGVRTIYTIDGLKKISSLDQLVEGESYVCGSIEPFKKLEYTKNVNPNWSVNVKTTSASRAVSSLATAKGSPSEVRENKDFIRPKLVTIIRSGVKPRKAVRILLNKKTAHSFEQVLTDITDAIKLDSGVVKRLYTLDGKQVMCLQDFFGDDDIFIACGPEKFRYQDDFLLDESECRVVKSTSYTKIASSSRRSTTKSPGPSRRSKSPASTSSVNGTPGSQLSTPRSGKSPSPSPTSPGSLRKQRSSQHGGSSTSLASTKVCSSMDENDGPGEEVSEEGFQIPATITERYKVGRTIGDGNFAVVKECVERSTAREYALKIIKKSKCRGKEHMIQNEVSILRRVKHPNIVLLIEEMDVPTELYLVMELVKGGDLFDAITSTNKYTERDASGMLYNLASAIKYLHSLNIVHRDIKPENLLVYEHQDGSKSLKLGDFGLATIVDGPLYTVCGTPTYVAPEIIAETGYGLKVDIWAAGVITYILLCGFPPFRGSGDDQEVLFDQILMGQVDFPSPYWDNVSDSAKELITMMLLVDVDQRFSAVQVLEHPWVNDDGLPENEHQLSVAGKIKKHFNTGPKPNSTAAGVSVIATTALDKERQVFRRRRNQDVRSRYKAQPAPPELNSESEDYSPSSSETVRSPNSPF
Briefly: In vitro DCLK1 kinase activity assay (Eurofins). To be noted: for Selectivity (IC50 of DCLK1/IC50 of LRRK2): ratio of IC50 values; for Selectivity (DCLK1 activity/LRRK2 activity): ratio of remaining activities at 1 uM; for activity at 1 µM: read-out: DCLK1 activity (%). The series is classed as biochemical.
From the text: as §1

The mark [1] stands for this setting: remaining kinase activity at 1 uM compound, 100% = no inhibition, 0% = complete inhibition.

T1 sequence (Q5S007 whole entry): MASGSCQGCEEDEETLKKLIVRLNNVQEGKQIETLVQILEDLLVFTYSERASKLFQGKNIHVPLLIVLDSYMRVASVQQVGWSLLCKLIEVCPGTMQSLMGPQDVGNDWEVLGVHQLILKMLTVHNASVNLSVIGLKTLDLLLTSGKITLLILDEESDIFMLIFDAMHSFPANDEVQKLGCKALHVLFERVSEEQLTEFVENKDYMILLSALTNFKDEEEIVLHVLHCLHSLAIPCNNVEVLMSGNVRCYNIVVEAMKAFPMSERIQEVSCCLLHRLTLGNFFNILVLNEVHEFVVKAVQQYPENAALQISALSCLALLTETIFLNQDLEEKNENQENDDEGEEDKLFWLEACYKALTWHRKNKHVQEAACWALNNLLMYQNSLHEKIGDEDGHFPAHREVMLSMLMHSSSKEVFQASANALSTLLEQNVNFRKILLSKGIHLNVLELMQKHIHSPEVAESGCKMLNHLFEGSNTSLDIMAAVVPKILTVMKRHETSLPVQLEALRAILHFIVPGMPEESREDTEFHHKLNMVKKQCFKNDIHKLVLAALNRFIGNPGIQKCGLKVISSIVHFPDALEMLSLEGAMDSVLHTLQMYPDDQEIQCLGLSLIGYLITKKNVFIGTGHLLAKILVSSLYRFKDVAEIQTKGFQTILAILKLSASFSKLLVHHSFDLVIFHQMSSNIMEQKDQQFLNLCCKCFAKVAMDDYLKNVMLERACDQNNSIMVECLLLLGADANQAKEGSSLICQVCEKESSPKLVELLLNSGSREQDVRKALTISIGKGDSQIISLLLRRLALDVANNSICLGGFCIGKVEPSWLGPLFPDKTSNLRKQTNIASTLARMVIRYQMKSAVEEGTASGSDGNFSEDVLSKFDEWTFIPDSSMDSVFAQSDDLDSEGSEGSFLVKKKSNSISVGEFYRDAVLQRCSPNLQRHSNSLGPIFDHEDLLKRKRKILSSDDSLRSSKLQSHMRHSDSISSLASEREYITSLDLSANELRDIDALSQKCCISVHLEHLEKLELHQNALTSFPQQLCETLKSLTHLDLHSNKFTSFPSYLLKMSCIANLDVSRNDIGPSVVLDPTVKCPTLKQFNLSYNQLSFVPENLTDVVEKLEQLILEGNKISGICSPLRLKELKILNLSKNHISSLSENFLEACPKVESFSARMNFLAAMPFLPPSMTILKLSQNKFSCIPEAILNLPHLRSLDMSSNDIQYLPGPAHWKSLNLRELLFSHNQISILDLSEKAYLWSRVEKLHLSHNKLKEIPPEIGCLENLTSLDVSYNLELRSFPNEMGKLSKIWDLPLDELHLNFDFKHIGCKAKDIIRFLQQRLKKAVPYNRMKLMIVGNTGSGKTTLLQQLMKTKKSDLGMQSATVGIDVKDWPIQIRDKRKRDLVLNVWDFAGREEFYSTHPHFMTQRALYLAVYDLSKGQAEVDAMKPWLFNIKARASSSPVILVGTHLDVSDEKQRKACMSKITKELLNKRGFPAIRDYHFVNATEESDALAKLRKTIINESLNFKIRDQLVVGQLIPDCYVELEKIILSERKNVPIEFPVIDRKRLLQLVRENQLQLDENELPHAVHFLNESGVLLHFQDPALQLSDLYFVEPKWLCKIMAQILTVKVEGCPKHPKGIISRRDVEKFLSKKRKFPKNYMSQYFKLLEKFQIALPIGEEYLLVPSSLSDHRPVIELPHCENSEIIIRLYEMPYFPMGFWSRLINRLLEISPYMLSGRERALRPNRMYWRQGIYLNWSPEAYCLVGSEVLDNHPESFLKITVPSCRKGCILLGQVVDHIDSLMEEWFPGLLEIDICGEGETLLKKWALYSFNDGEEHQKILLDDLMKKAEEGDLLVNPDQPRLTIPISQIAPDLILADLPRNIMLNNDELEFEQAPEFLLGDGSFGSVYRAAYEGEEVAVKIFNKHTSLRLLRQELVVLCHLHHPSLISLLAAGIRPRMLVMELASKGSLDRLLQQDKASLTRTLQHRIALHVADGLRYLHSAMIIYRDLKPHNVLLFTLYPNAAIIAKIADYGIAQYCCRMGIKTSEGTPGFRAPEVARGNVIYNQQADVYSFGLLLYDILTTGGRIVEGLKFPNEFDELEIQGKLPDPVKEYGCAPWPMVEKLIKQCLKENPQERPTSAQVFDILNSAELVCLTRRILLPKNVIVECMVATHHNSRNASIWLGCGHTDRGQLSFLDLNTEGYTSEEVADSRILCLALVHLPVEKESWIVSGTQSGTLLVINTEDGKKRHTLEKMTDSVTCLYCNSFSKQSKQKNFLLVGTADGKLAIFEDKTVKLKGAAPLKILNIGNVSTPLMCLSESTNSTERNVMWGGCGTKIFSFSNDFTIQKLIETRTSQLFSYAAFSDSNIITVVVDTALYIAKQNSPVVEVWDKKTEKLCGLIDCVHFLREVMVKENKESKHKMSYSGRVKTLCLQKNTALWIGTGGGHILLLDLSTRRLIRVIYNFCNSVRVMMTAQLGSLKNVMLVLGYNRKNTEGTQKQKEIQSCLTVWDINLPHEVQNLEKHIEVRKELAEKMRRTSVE

One may read the IC50 as the concentration that gives 50% inhibition. One may read the melting point as the temperature of the solid-liquid transition. On to `CCOc1cc(N2CC[S+]([O-])CC2)ccc1Nc1ncc2c(n1)N(C)c1ccccc1C(=O)N2C` [Compound D5, 2-((2-ethoxy-4-(1-Oxidothiomorpholino)phenyl)amino)-5,11-dimethyl-5,11-dihydro-6H-benzo[e]pyrimido[5,4-b][1,4]diazepin-6-one], for which the melting point was 163 to 164 °C. The same compound had an IC50 in the series on HCT116 of 10700 nM. At LRRK2, this compound showed an IC50 of 320 nM and an activity at 1 µM of 21%. On DCLK1, the “Selectivity (IC50 of DCLK1/IC50 of LRRK2)” value is 0.46 and the “Selectivity (DCLK1 activity/LRRK2 activity)” value worked out at 0.57. Moreover, the IC50 on DCLK1 (read-out: IC50 of DCLK1) is 146 nM. For the same compound, the activity at 1 µM at DCLK1 (setting [1]) turned out to be 12%.

The compound `COc1cc(NC(=O)CC(=O)O)ccc1Nc1ncc2c(n1)N(C)c1ccccc1C(=O)N2C` [Compound D1, 3-((4-((5,11-Dimethyl-6-oxo-6,11-dihydro-5H-benzo[e]pyrimido[5,4-b][1,4]diazepin-2-yl)amino)-3-methoxyphenyl)amino)-3-oxopropanoic acid] yielded a melting point of 187 to 188 °C. The compound also had an IC50 in the series with HCT116 of more than 100000 nM. Further, on LRRK2, the half-inhibitory concentration (IC50) was more than 1000 nM and the activity at 1 µM is 56%. Besides, on DCLK1, the “Selectivity (IC50 of DCLK1/IC50 of LRRK2)” value is reported as less than 0.05 and the “Selectivity (DCLK1 activity/LRRK2 activity)” value is listed as 0.13. Moreover, the IC50 at DCLK1 (read-out: IC50 of DCLK1) was found to be 47 nM. Besides, the activity at 1 µM on DCLK1 (setting [1]) was determined as 7%.

The compound `COc1cc(N2CCC(F)(F)CC2)ccc1Nc1ncc2c(n1)N(C)c1ccccc1C(=O)N2C` [Compound D14, 2-((4-(4,4-Difluoropiperidin-1-yl)-2-methoxyphenyl)amino)-5,11-dimethyl-5,11-dihydro-6H-benzo[e]pyrimido[5,4-b][1,4]diazepin-6-one] had a melting point of 171 to 172 °C. Also, it took 15500 nM to reach half-maximal inhibition with HCT116 (IC50). On LRRK2, this compound yielded an IC50 of 132 nM and an activity at 1 µM of 16%. In addition, at DCLK1, the “Selectivity (IC50 of DCLK1/IC50 of LRRK2)” value turned out to be 0.40 and the “Selectivity (DCLK1 activity/LRRK2 activity)” value is given as 0.44. The IC50 on DCLK1 (read-out: IC50 of DCLK1) stood at 53 nM. For the same compound, the activity at 1 µM at DCLK1 (setting [1]) was 7%.

Take `COc1cc(N2CCC(C)(O)CC2)ccc1Nc1ncc2c(n1)N(C)c1ccccc1C(=O)N2C` [Compound D15, 2-((4-(4-Hydroxy-4-methylpiperidin-1-yl)-2-methoxyphenyl)amino)-5,11-dimethyl-5,11-dihydro-6H-benzo[e]pyrimido[5,4-b][1,4]diazepin-6-one]: the melting point lay within 162 to 163 °C. In the series with HCT116, this compound registered an IC50 of 9880 nM. For the same compound, at LRRK2, half-maximal inhibition (IC50) required 89 nM and the activity at 1 µM is 9%. Also, at DCLK1, the “Selectivity (IC50 of DCLK1/IC50 of LRRK2)” value was 0.58 and the “Selectivity (DCLK1 activity/LRRK2 activity)” value is recorded as 0.44. For the same compound, the IC50 at DCLK1 (read-out: IC50 of DCLK1) worked out at 52 nM. Further, the activity at 1 µM on DCLK1 (setting [1]) was 4%.

Take `CCOc1cc(N2CCC(O)CC2)ccc1Nc1ncc2c(n1)N(C)c1cccc(F)c1C(=O)N2C` [Compound A9, 2-((2-Ethoxy-4-(4-hydroxypiperidin-1-yl)phenyl)amino)-7-fluoro-5,11-dimethyl-5,11-dihydro-6H-benzo[e]pyrimido[5,4-b][1,4]diazepin-6-one]: the melting point lay within 174 to 175 °C. For the same compound, the IC50 in the series with HCT116 came to 20500 nM. Besides, at LRRK2, the half-maximal inhibitory concentration (IC50) was more than 1000 nM and the activity at 1 µM was determined as 50%. At DCLK1, the “Selectivity (IC50 of DCLK1/IC50 of LRRK2)” value is listed as less than 0.34 and the “Selectivity (DCLK1 activity/LRRK2 activity)” value was 0.34. In addition, the half-inhibitory concentration (IC50) at DCLK1 (read-out: IC50 of DCLK1) stood at 338 nM. The activity at 1 µM at DCLK1 (setting [1]) was 17%.

For `CCOc1cc(N2CCC(O)CC2)ccc1Nc1ncc2c(n1)N(C)c1ccccc1C(=O)N2C` [XMD8-92, reference compound], the IC50 in the series on HCT116 was determined as 16200 nM; at LRRK2, 219 nM; against DCLK1, 161 nM. The activity at 1 µM at LRRK2 came to 18%; on DCLK1 it was 14%.

`CCOc1cc(N2CCC(C(=O)O)CC2)ccc1Nc1ncc2c(n1)N(C)c1ccccc1C(=O)N2C` [Compound D3, 1-(4-((5,11-Dimethyl-6-oxo-6,11-dihydro-5H-benzo[e]pyrimido[5,4-b][1,4]diazepin-2-yl)amino)-3-ethoxyphenyl)piperidine-4-carboxylic acid] yielded a melting point of 159 to 160 °C. In the series with HCT116, this compound showed an IC50 of 21500 nM. Besides, on LRRK2, the IC50 is more than 1000 nM and the activity at 1 µM was 34%. Also, at DCLK1, the “Selectivity (IC50 of DCLK1/IC50 of LRRK2)” value is given as less than 0.34 and the “Selectivity (DCLK1 activity/LRRK2 activity)” value is reported as 0.59. For the same compound, at DCLK1 (read-out: IC50 of DCLK1), the 50% inhibitory concentration (IC50) was 340 nM. Further, the activity at 1 µM on DCLK1 (setting [1]) is 20%.

`CCOc1cc(N2CCC(O)CC2)ccc1Nc1ncc2c(n1)N(C)c1ccc(F)cc1C(=O)N2C` [Compound A6, 2-((2-Ethoxy-4-(4-hydroxypiperidin-1-yl)phenyl)amino)-8-fluoro-5,11-dimethyl-5,11-dihydro-6H-benzo[e]pyrimido[5,4-b][1,4]diazepin-6-one] gave a melting point of 166 to 167 °C. In addition, the IC50 with HCT116 was 24700 nM. On LRRK2, the IC50 is more than 1000 nM and the activity at 1 µM is 51%. In addition, at DCLK1, the “Selectivity (IC50 of DCLK1/IC50 of LRRK2)” value is less than 0.37 and the “Selectivity (DCLK1 activity/LRRK2 activity)” value came to 0.37. In addition, the IC50 on DCLK1 (read-out: IC50 of DCLK1) was 365 nM. Further, on DCLK1 (setting [1]), the activity at 1 µM worked out at 19%.

With `COc1cc(NC(=O)CCC(=O)O)ccc1Nc1ncc2c(n1)N(C)c1ccccc1C(=O)N2C` [Compound D2, 4-((4-((5,11-Dimethyl-6-oxo-6,11-dihydro-5H-benzo[e]pyrimido[5,4-b][1,4]diazepin-2-yl)amino)-3-methoxyphenyl)amino)-4-oxobutanoic acid], the melting point lay within 237 to 238 °C. The compound further returned an IC50 in the series on HCT116 of more than 100000 nM. At LRRK2, the IC50 was more than 1000 nM and the activity at 1 µM worked out at 49%. Besides, on DCLK1, the “Selectivity (IC50 of DCLK1/IC50 of LRRK2)” value is on record as less than 0.07 and the “Selectivity (DCLK1 activity/LRRK2 activity)” value is 0.20. In addition, at DCLK1 (read-out: IC50 of DCLK1), the IC50 was 70 nM. The activity at 1 µM at DCLK1 (setting [1]) is 10%.

On to `CCOc1cc(N2CCC(O)CC2)ccc1Nc1ncc2c(n1)N(C)c1ccccc1C(=O)N2CC` [Compound B3, 2-((2-Ethoxy-4-(4-hydroxypiperidin-1-yl)phenyl)amino)-5-ethyl-11-methyl-5,11-dihydro-6H-benzo[e]pyrimido[5,4-b][1,4]diazepin-6-one], for which the melting point lay in the range of 162 to 163 °C. This compound also registered an IC50 in the series on HCT116 of 33200 nM. Also, on LRRK2, the IC50 is more than 1000 nM and the activity at 1 µM amounted to 70%. For the same compound, at DCLK1, the “Selectivity (IC50 of DCLK1/IC50 of LRRK2)” value is on record as less than 0.32 and the “Selectivity (DCLK1 activity/LRRK2 activity)” value is 0.40. The IC50 at DCLK1 (read-out: IC50 of DCLK1) came to 324 nM. Also, the activity at 1 µM on DCLK1 (setting [1]) turned out to be 28%.

Turning to `COc1cc(N2CCC(OC)CC2)ccc1Nc1ncc2c(n1)N(C)c1ccccc1C(=O)N2C` [Compound D12, 2-((2-Methoxy-4-(4-methoxypiperidin-1-yl)phenyl)amino)-5,11-dimethyl-5,11-dihydro-6H-benzo[e]pyrimido[5,4-b][1,4]diazepin-6-one], the melting point lay in the range of 179 to 180 °C. Besides, the IC50 in the series on HCT116 amounted to 10100 nM. At LRRK2, this compound yielded an IC50 of 99 nM and an activity at 1 µM of 10%. Also, on DCLK1, the “Selectivity (IC50 of DCLK1/IC50 of LRRK2)” value is on record as 0.47 and the “Selectivity (DCLK1 activity/LRRK2 activity)” value is reported as 0.50. In addition, the IC50 at DCLK1 (read-out: IC50 of DCLK1) is 47 nM. The activity at 1 µM at DCLK1 (setting [1]) amounted to 5%.
